Results as given in ChEMBL document CHEMBL1909046, “DrugMatrix in vitro pharmacology data”.
Where a SMILES comes first, the peptide text is derived from it. Bridges are numbered along the chain shown (N, C = ends). [ ]: non-standard residue; d: D form. The star is where a group is joined. Ileψ(thiazoline)Cys = CC[C@H](C)[C@H](N)C1=N[C@H](C(=O)*)CS1; dOrn = NCCC[C@@H](N)C(=O)O

Legend:
Acetylcholinesterase = Acetylcholinesterase (Homo sapiens, UniProt P22303); assay: DRUGMATRIX: Acetylcholinesterase enzyme inhibition (substrate: acetylthiocholine); type: cell-based, HEK293; details: hek293; Not Active = under 50% inhibition at 10 µM
Chain of Acetylcholinesterase (P22303 whole entry): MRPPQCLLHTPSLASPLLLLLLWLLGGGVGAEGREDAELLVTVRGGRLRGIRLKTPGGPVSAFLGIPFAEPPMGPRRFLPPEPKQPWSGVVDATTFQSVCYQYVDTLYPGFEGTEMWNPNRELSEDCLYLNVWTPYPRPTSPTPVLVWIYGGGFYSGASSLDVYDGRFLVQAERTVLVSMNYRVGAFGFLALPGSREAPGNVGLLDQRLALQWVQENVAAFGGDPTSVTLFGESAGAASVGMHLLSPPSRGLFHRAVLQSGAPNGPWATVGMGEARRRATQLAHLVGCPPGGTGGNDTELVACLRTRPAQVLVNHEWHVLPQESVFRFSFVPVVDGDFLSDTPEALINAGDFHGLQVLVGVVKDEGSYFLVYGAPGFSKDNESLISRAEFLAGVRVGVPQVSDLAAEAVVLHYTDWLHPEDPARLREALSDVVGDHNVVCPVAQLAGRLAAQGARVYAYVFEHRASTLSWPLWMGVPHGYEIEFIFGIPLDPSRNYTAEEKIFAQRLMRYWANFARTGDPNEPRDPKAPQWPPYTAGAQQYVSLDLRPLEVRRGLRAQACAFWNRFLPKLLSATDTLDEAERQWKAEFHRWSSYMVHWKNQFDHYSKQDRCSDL

D(4) dopamine receptor = molecular target: T1, D(4) dopamine receptor (Homo sapiens, UniProt P21917); assay: DRUGMATRIX: Dopamine D4.2 radioligand binding (ligand: [3H] Spiperone); type: cell membranes, CHO-K1, Membrane; details: cho-k1; Not Active = under 50% inhibition at 10 µM
T1 sequence (P21917 whole entry): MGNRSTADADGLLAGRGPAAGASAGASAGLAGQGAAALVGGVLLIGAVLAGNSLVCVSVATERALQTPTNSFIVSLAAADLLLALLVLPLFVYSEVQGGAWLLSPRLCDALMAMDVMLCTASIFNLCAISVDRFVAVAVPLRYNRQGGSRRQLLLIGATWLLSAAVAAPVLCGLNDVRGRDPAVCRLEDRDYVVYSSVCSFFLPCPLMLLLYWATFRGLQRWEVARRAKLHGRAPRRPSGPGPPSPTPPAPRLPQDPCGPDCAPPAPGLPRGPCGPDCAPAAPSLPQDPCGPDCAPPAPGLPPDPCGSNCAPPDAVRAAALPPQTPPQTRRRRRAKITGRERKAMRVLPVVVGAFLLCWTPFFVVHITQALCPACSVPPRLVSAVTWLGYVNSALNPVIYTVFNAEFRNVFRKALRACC

Caspase-1 = molecular target: T2, Caspase-1 (Homo sapiens, UniProt P29466); design: species or system Escherichia coli;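 also: Caspase-1 enzyme inhibition assay with a peptide substrate; in other assays of this panel Not Active means under 50% inhibition at 10 µM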
T2 sequence (P29466 whole entry): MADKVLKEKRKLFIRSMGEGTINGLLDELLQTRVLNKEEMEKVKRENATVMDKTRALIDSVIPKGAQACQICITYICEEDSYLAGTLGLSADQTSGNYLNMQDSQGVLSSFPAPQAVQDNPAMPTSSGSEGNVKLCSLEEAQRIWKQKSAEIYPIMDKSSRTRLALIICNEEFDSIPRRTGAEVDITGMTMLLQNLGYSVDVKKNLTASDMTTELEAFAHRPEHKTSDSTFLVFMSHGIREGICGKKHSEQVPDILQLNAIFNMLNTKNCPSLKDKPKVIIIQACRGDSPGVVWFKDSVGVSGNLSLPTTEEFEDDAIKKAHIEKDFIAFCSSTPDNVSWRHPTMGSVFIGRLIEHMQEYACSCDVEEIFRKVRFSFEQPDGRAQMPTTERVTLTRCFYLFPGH

D(3) dopamine receptor = D(3) dopamine receptor (Homo sapiens, UniProt P35462); assay: DRUGMATRIX: Dopamine D3 radioligand binding (ligand: [3H] Spiperone); type: cell membranes, CHO, Membrane; details: cho
Chain of D(3) dopamine receptor (P35462 whole entry): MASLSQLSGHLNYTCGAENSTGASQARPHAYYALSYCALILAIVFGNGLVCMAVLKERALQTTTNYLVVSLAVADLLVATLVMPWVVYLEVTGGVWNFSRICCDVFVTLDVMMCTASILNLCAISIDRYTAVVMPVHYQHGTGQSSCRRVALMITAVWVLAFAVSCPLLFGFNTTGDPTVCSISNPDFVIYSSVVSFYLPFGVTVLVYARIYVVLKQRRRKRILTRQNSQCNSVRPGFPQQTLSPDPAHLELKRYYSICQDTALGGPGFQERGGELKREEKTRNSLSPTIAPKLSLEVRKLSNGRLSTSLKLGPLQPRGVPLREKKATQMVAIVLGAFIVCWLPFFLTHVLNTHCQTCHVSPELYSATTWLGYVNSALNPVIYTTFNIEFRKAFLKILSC

[1] = molecular target: T3, Receptor-type tyrosine-protein phosphatase C (Homo sapiens, UniProt P08575); design: species or system Escherichia coli;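 also: inhibition of CD45 enzyme activity measured using DiFMUP as substrate; in other assays of this panel Not Active means under 50% inhibition at 10 µM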
T3 sequence (P08575 whole entry): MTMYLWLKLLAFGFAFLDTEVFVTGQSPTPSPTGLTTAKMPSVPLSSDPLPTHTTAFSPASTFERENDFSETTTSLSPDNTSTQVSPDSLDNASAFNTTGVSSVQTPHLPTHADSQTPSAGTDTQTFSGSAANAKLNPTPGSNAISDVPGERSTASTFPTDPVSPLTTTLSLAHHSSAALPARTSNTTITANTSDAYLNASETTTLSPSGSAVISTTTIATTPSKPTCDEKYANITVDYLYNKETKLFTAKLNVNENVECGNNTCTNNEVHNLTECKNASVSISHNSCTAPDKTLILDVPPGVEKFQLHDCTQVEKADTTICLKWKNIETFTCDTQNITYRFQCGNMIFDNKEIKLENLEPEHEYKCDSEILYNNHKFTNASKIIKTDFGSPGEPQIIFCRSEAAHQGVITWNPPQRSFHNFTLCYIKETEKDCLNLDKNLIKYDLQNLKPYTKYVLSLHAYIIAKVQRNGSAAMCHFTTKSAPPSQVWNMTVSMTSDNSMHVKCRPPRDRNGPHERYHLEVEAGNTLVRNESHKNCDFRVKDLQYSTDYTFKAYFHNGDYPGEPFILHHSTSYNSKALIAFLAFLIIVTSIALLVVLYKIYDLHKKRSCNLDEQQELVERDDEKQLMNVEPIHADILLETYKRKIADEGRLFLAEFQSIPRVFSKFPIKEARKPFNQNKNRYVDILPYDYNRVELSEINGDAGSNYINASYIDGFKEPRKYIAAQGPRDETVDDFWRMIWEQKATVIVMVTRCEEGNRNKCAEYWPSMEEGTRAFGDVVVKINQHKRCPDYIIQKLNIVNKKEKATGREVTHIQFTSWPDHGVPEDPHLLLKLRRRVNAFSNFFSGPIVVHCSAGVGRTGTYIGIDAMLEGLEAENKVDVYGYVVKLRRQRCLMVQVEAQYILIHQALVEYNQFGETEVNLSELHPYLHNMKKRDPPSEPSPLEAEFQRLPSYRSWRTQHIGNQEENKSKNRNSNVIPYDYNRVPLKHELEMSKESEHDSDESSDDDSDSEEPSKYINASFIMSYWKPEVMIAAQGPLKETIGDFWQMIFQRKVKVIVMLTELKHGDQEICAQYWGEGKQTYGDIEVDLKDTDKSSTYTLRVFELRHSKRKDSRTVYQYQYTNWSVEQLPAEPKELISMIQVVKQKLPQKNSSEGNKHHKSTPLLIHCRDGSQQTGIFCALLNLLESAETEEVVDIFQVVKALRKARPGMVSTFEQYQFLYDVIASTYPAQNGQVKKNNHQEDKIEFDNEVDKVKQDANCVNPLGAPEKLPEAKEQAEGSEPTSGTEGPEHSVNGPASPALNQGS

[2] = molecular target: Mitogen-activated protein kinase 14 (Homo sapiens, UniProt Q16539); design: species or system Escherichia coli;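 also: inhibition of p38alpha enzyme activity in a biochemical kinase assay, with myelin basic protein serving as substrate; in other assays of this panel Not Active means under 50% inhibition at 10 µM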
Chain of Mitogen-activated protein kinase 14 (Q16539 whole entry): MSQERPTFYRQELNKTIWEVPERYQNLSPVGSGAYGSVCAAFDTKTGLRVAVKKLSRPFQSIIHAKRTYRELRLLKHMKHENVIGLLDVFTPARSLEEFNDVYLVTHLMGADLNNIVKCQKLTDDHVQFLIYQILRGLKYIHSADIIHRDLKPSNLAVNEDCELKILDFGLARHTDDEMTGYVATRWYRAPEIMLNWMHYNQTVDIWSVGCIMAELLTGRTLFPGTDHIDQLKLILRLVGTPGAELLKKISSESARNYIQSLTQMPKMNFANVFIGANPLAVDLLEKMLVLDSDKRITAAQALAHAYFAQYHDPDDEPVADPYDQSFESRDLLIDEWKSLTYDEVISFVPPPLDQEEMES

Cathepsin G = molecular target: T4, Cathepsin G (Homo sapiens, UniProt P08311); type: tissue-based; details: neutrophil;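 also: inhibition of Cathepsin G enzyme activity, tested on an AMC-conjugated peptide substrate; in other assays of this panel Not Active means under 50% inhibition at 10 µM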
T4 sequence (P08311 whole entry): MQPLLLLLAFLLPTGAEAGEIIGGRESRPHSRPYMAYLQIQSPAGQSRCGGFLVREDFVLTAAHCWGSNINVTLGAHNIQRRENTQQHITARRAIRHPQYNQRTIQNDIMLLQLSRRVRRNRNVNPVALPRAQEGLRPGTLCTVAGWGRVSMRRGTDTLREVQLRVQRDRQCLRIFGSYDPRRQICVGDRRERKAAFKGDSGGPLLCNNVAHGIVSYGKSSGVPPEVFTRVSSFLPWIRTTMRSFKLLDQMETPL

[3] = molecular target: C-C chemokine receptor type 2 (Homo sapiens, UniProt P41597); type: cell membranes, CHO-K1, Membrane; details: cho-k1; also: in other assays of this panel Not Active means under 50% inhibition at 10 µM
Chain of C-C chemokine receptor type 2 (P41597 whole entry): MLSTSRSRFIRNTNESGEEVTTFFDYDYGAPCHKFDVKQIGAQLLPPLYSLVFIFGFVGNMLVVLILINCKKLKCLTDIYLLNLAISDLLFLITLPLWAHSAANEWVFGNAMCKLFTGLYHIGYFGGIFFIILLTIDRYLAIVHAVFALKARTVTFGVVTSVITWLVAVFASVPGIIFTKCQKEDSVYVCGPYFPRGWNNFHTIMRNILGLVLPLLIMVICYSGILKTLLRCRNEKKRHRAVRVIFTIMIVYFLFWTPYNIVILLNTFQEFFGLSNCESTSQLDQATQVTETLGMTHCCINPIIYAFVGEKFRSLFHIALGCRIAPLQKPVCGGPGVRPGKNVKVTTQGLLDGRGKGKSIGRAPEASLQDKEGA

[4] = DRUGMATRIX: GABAA, Muscimol, Central radioligand binding (ligand: [3H] Muscimol); type: cell membranes, Rattus norvegicus, Wistar, Brain, Membrane; details: Not Active = under 50% inhibition at 10 µM

CC(=O)[C@@]1(O)CC[C@H]2[C@@H]3C[C@H](C)C4=CC(=O)C=C[C@]4(C)[C@@]3(F)[C@@H](O)C[C@@]21C [FLUOROMETHOLONE]
Not Active: IC50 (Acetylcholinesterase) | IC50 (D(4) dopamine receptor) | IC50 (Caspase-1) | IC50 (D(3) dopamine receptor) | IC50 [1] | IC50 [2] | IC50 (Cathepsin G) | IC50 [3] | IC50 [4] | Ki [4]

O=c1[nH]cc(F)c(=O)[nH]1 [FLUOROURACIL]
Not Active: IC50 (Acetylcholinesterase) | IC50 (D(4) dopamine receptor) | IC50 (Caspase-1) | IC50 (D(3) dopamine receptor) | IC50 [1] | IC50 [2] | IC50 (Cathepsin G) | IC50 [3] | IC50 [4] | Ki [4]

O=C(O)c1cn(C2CC2)c2cc(N3CCNCC3)c(F)cc2c1=O [CIPROFLOXACIN]
Not Active: IC50 (Acetylcholinesterase) | IC50 (D(4) dopamine receptor) | IC50 (Caspase-1) | IC50 (D(3) dopamine receptor) | IC50 [1] | IC50 [2] | IC50 (Cathepsin G) | IC50 [3] | IC50 [4] | Ki [4]

CC(C)(Oc1ccc(CCNC(=O)c2ccc(Cl)cc2)cc1)C(=O)O [BEZAFIBRATE]
Not Active: IC50 (Acetylcholinesterase) | IC50 (D(4) dopamine receptor) | IC50 (Caspase-1) | IC50 (D(3) dopamine receptor) | IC50 [1] | IC50 [2] | IC50 (Cathepsin G) | IC50 [3] | IC50 [4] | Ki [4]

CC[C@H](C)[C@H](N)C1=N[C@H](C(=O)N[C@@H](CC(C)C)C(=O)N[C@H](CCC(=O)O)C(=O)N[C@H](C(=O)N[C@H]2CCCCNC(=O)[C@H](CC(N)=O)NC(=O)[C@@H](CC(=O)O)NC(=O)[C@H](Cc3cnc[nH]3)NC(=O)[C@@H](Cc3ccccc3)NC(=O)[C@H]([C@@H](C)CC)NC(=O)[C@@H](CCCN)NC2=O)[C@@H](C)CC)CS1 [BACITRACIN] ({Ileψ(thiazoline)Cys}-L[dE]IK[dOrn]I[dF]H[dD]N; lactam 4-C)
Not Active: IC50 (Acetylcholinesterase) | IC50 (D(4) dopamine receptor) | IC50 (Caspase-1) | IC50 (D(3) dopamine receptor) | IC50 [1] | IC50 [2] | IC50 (Cathepsin G) | IC50 [3] | IC50 [4] | Ki [4]

Nc1nc(=O)[nH]cc1F [FLUCYTOSINE]
Not Active: IC50 (Acetylcholinesterase) | IC50 (D(4) dopamine receptor) | IC50 (Caspase-1) | IC50 (D(3) dopamine receptor) | IC50 [1] | IC50 [2] | IC50 (Cathepsin G) | IC50 [3] | IC50 [4] | Ki [4]

O=C1OCCN1/N=C/c1ccc([N+](=O)[O-])o1 [FURAZOLIDONE]
Not Active: IC50 (Acetylcholinesterase) | IC50 (D(4) dopamine receptor) | IC50 (Caspase-1) | IC50 (D(3) dopamine receptor) | IC50 [1] | IC50 [2] | IC50 (Cathepsin G) | IC50 [3] | IC50 [4] | Ki [4]

CC1(C)S[C@@H]2[C@H](NC(=O)[C@H](NC(=O)N3CCNC3=O)c3ccccc3)C(=O)N2[C@H]1C(=O)O [AZLOCILLIN]
Not Active: IC50 (Acetylcholinesterase) | IC50 (D(4) dopamine receptor) | IC50 (Caspase-1) | IC50 (D(3) dopamine receptor) | IC50 [1] | IC50 [2] | IC50 (Cathepsin G) | IC50 [3] | IC50 [4] | Ki [4]

N=C(N)NCCCCNC(=N)N.O=S(=O)(O)O [ARCAINE SULFATE]
Not Active: IC50 (Acetylcholinesterase) | IC50 (D(4) dopamine receptor) | IC50 (Caspase-1) | IC50 (D(3) dopamine receptor) | IC50 [1] | IC50 [2] | IC50 (Cathepsin G) | IC50 [3] | IC50 [4] | Ki [4]

Oc1cccc2cccnc12 [OXYQUINOLINE]
Not Active: IC50 (Acetylcholinesterase) | IC50 (D(4) dopamine receptor) | IC50 (Caspase-1) | IC50 (D(3) dopamine receptor) | IC50 [1] | IC50 [2] | IC50 (Cathepsin G) | IC50 [3] | IC50 [4] | Ki [4]

CN1CCC[C@H]1c1cccnc1 [NICOTINE]
Not Active: IC50 (Acetylcholinesterase) | IC50 (D(4) dopamine receptor) | IC50 (Caspase-1) | IC50 (D(3) dopamine receptor) | IC50 [1] | IC50 [2] | IC50 (Cathepsin G) | IC50 [3] | IC50 [4] | Ki [4]

NCC[C@H](O)C(=O)N[C@@H]1C[C@H](N)[C@@H](O[C@H]2O[C@H](CN)[C@@H](O)[C@H](O)[C@H]2O)[C@H](O)[C@H]1O[C@H]1O[C@H](CO)[C@@H](O)[C@H](N)[C@H]1O [AMIKACIN]
Not Active: IC50 (Acetylcholinesterase) | IC50 (D(4) dopamine receptor) | IC50 (Caspase-1) | IC50 (D(3) dopamine receptor) | IC50 [1] | IC50 [2] | IC50 (Cathepsin G) | IC50 [3] | IC50 [4] | Ki [4]

CC(/C=C1\SC(=S)N(CC(=O)O)C1=O)=C\c1ccccc1
Not Active: IC50 (Acetylcholinesterase) | IC50 (D(4) dopamine receptor) | IC50 (Caspase-1) | IC50 (D(3) dopamine receptor) | IC50 [1] | IC50 [2] | IC50 (Cathepsin G) | IC50 [3] | IC50 [4] | Ki [4]
